This note sets out measurements from US20120315290A1, “INHIBITORS OF LL-37 MEDIATED IMMUNE REACTIVITY TO SELF NUCLEIC ACIDS” (BOARD OF REGENTS, THE UNIVERSITY OF TEXAS SYSTEM, priority 2006, published 2012).

The experiment relates to murine pDC. Kind of experiment: Murine pDC stimulation with peptide/DNA complexes (IFN-a ELISA). It counts as cell-based, mouse. As to conditions: complexed with DNA. On the procedure: Murine pDC were generated from Flt3 ligand supplemented BM cultures and isolated by sorting of CD11c+CD11b-B220+ cells, as previously described. 50,000 murine pDC in […] of complete medium were stimulated with human LL-37 ([…]), mouse CRAMP ([…]), DNA alone, or DNA plus LL-37 or DNA plus CRAMP. After overnight culture supernatants were collected and tested for IFN-a by ELISA.
Murine pDC respond to LL-37-DNA complexes. To determine whether mouse pDCs can respond to LL-37/DNA complexes, we purified mouse pDCs from Flt3L-supplemented BM cultures according to their CD11c+CD11b-B220+ phenotype, and stimulated them with DNA complexed with LL-37 or CRAMP (the murine LL-37 homologue). […] However, compared to LL-37, approximately 3 times more CRAMP was required to elicit the same amount of type I IFNs (FIG. 27).

Turning to CRAMP, the “Amount required to elicit the same amount of type I IFNs, compared to LL-37” value is reported as “approximately 3 times”.
